Molecules are shown by their SMILES.

On to `CCCCNC(=O)C(C)CC(O)C(Cc1ccccc1)NC(=O)C1=Cc2ccccc2Oc2cc(Cl)ccc21` (stereo not shown) [Example 9, 7-Chloro-dibenzo[b,f]oxepine-10-carboxylic acid (1-benzyl-4-butylcarbamoyl-2-hydroxy-pentyl)-amide], for which the melting point lay within 153 to 155 °C.

The molecule `CCCCNC(=O)C(C)CC(O)C(Cc1cccc(F)c1)NC(=O)C1=Cc2ccccc2Oc2ccccc21` (stereo not shown) [Example 17, Dibenzo[b,f]oxepine-10-carboxylic acid [4-butylcarbamoyl-1-(3-fluorobenzyl)-2-hydroxy-pentyl]-amide] registered a melting point of 204 to 207 °C.

Take `CCCCNC(=O)C(C)CC(O)C(Cc1ccccc1)NC(=O)c1cc2ccccc2c(=O)c2ccccc12` (stereo not shown) [Example 11, 5-Oxo-5H-dibenzo[a,d]cycloheptene-10-carboxylic acid (1-benzyl-4-butylcarbamoyl-2-hydroxy-pentyl)-amide]: the melting point was 229 to 230 °C.

`CCCCNC(=O)C(C)CC(O)C(Cc1cc(F)cc(F)c1)NC(=O)C1=Cc2ccccc2Oc2ccccc21` (stereo not shown) [Example 16, Dibenzo[b,f]oxepine-10-carboxylic acid [4-butylcarbamoyl-1-(3,5-difluorobenzyl)-2-hydroxy-pentyl]-amide] returned a melting point of 174 to 176 °C.

Source of the values: US7612054B2, “Dibenzo[b,f]oxepine-10-carboxamides and pharmaceutical uses thereof” (Novartis AG, priority 2003, dated 2009).
